We go through 14 compounds from patent US20230078120A1 (priority 2020, published 2023).

The target of one data set is ABL1-nonphosphorylated (Homo sapiens, UniProt P00519). Nature of the data set: Compound 1 kinase inhibition activity (% Ctrl), ABL1-nonphosphorylated. The class given is biochemical.
The target of a further data set is ABL1-phosphorylated (Homo sapiens, UniProt P00519). As to the kind of experiment: Compound 1 kinase inhibition activity (% Ctrl), ABL1-phosphorylated. Type of data set: biochemical.
Sequence of ABL1-phosphorylated (P00519 whole entry): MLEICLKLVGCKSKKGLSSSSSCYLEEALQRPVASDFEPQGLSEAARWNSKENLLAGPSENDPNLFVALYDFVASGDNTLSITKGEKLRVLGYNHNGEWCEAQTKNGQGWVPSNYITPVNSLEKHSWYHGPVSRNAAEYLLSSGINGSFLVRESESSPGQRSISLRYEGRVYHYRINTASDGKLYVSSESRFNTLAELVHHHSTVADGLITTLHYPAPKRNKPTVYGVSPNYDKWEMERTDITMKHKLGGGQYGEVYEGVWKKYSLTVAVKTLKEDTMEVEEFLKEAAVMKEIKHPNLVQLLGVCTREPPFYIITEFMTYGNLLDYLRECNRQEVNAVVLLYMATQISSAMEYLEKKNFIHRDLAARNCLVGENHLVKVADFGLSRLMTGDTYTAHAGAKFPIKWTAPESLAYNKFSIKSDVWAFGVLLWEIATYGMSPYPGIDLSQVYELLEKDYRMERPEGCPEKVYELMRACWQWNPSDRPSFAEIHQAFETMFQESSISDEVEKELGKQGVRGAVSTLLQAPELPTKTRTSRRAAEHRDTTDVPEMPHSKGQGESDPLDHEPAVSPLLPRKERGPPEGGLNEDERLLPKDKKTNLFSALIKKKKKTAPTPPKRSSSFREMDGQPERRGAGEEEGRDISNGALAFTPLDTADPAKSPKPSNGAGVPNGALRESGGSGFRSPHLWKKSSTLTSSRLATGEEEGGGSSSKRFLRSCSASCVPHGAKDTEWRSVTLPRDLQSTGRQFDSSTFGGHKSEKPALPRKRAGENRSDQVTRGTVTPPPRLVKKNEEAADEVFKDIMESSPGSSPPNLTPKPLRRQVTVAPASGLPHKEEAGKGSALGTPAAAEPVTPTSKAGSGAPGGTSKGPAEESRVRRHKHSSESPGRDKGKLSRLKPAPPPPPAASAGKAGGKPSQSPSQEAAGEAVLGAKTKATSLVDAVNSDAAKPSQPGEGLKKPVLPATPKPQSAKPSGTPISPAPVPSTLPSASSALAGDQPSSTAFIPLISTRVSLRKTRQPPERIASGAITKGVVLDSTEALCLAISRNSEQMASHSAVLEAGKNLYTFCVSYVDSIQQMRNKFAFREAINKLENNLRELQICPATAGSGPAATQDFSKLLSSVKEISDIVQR
The target of a further data set is ABL2 (Homo sapiens, UniProt P42684). As to the kind of experiment: Compound 1 kinase inhibition activity (% Ctrl), ABL2. Type of data set: biochemical.
Sequence of ABL2 (P42684 whole entry, species assumed): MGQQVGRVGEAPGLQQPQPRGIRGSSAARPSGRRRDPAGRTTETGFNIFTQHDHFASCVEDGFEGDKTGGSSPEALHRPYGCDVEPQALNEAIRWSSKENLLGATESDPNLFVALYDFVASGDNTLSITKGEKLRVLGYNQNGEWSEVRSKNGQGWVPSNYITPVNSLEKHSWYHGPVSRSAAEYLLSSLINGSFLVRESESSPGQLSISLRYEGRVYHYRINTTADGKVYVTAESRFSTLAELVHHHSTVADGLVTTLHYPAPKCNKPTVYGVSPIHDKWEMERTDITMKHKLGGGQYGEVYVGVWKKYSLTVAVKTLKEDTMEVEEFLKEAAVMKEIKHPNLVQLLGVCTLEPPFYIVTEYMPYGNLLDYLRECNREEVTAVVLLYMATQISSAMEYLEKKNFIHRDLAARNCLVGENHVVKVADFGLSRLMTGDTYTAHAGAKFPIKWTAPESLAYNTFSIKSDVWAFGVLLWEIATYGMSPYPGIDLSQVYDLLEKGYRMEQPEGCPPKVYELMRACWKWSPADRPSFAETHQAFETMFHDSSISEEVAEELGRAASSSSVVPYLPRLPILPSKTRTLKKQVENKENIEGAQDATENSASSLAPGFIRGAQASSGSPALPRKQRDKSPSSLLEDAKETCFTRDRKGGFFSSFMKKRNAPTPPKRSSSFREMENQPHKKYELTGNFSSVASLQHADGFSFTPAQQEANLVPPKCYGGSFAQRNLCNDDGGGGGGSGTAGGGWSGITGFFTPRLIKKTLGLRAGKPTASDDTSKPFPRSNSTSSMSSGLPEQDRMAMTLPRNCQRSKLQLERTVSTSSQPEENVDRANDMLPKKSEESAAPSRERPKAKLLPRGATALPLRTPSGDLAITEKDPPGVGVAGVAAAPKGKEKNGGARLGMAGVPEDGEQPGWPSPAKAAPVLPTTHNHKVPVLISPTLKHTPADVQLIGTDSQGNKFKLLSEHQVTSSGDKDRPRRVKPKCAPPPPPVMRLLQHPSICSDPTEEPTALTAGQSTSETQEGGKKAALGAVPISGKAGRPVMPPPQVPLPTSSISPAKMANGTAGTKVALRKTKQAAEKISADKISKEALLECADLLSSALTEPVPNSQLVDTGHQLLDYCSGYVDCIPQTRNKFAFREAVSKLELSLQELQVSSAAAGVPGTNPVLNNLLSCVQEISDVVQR
In the next data set the test system is SARS-CoV-2. Nature of the data set: microbe, parasite or virus in culture. The class given is cell-based. The settings on record: for IC50: Severe acute respiratory syndrome coronavirus 2, Vero; for Max Inhibition (%): Vero cells, MOI 0.0125, 24 hpi, at the Max Conc. of each compound (5, 50 or 150 uM).
Data set [1] deals with cytokines associated with influenza virus induced cytokine storm. As to the kind of experiment: Inhibition of cytokines associated with influenza virus induced cytokine storm, U937 cells, Luminex assay. Type of data set: cell-based. Conditions: U937 cells infected with influenza virus, MOI 0.1, 24 hours treatment. On the procedure: Following the method described in Front Immunol. 2019 Jun. 21; 1393 and Am. J. Physiol., Lung Cell Mol. Physiol. 315: L52-L58, 2018, U937 cells were infected with influenza virus at a MOI of 0.1 and treated with indicated concentrations of Compound 1 and Compound 2. The supernatant of cells was harvested after 24 hours treatment and the production of indicated cytokines were determined using Luminex assay. The method and results are shown below in FIG. 7 and FIGS. 8A-8C. Survival of influenza virus (IFV) infected mice are shown Table 4 and in FIGS. 9A-9B.

The subject of another data set is influenza virus. Type of data set: in vivo, mice.
The target in the next data set is T1, RIPK1 (Homo sapiens, UniProt Q13546).
T1 sequence (Q13546 1-327 limits assumed): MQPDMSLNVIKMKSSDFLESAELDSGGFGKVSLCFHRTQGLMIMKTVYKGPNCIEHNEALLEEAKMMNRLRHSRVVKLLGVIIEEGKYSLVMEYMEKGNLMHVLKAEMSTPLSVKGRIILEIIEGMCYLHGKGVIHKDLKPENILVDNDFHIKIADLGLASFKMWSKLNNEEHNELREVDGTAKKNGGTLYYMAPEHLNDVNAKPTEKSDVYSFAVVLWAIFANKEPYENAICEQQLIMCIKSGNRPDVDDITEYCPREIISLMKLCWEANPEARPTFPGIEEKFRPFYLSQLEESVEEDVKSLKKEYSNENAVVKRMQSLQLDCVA
Nature of the data set: RIPK1 kinase assay (Promega RIPK1 Kinase Enzyme System kit). The class given is biochemical. Conditions: cell free assay.

Data set [2] deals with BCR-ABL1 expressing Ba/F3. Conditions: read-out: IC50 Cellular Activity (BCR-ABL1 expressing Ba/F3).
Another data set is described as follows: in vitro. The settings on record: African green monkey.
Another data set deals with BCR-ABL1 kinase (Homo sapiens, UniProt P00519). Nature of the data set: biochemical.
Sequence of BCR-ABL1 kinase (P00519 27-1130): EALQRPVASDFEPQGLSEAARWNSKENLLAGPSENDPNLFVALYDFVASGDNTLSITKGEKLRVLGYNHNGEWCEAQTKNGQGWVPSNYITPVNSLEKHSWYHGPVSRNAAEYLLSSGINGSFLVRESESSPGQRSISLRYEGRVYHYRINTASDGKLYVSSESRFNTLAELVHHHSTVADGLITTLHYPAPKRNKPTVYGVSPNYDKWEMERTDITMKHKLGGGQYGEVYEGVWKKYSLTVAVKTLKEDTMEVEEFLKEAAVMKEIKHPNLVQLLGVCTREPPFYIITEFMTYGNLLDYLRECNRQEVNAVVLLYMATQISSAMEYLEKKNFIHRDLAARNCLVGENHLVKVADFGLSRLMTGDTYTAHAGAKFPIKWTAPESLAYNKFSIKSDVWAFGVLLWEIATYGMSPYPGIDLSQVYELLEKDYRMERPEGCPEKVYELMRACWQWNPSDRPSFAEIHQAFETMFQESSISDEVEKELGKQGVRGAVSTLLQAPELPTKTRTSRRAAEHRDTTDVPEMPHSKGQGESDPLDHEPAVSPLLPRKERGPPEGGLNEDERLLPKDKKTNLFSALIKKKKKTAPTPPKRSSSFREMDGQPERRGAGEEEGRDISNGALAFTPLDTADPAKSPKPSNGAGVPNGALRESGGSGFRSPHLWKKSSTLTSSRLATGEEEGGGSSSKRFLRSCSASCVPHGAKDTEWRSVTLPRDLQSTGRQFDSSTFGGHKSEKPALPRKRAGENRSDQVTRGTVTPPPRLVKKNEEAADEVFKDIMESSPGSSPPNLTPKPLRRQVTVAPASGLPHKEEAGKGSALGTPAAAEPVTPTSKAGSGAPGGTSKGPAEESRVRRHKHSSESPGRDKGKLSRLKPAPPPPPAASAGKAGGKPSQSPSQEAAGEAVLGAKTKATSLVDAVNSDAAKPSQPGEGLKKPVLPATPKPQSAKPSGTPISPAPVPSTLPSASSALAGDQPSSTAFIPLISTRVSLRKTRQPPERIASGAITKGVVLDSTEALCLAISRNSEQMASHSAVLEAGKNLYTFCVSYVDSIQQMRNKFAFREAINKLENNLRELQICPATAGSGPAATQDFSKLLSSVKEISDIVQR
Data set [3] has as its system influenza A virus (IAV) infected cells. Conditions: caspase-mediate apoptosis pathway; cited from earlier work.
For data set [4], the system named is SARS-CoV. Conditions: Vero E6 cells; cited from earlier work.
The subject of data set [5] is MERS-CoV. The settings on record: Vero E6 cells; cited from earlier work.
For the next data set, the system named is Vero E6 cells. The settings on record: cited from earlier work.
For data set [6], the system named is SARS-CoV. Conditions: Vero E6 and Calu-3 cells; cited from earlier work.
In data set [7] the test system is MERS-CoV. The settings on record: Vero E6 and MRC5 cells; cited from earlier work.
For another data set, the system named is IL-8, IP-10, MCP-1. Conditions: cytokines associated with influenza-induced cytokine storm; cited from earlier work.
The test system of another data set is virus-infected cells. The settings on record: cited from earlier work.
In another data set the test system is IAPs. As to the kind of experiment: IAPs expression in HepG2.2.15 liver cancer cell line. The class given is cell-based. From the text:
(§1) Similar to the above mentioned IAP inhibitors, Compound 2 of the present invention is a potent IAP inhibitor and can promote apoptosis, and thus could be a potential antiviral compound for coronavirus infection treatment. FIGS. 1A-1C show the effect of Compound 2 on apoptotic induction, IAPs expression, and HBV replication and gene expression in HepG2.2.15 liver cancer cell line.

For data set [8], the system named is HepG2.2.15 liver cancer cell line. Nature of the data set: Apoptotic induction in HepG2.2.15 liver cancer cell line. Conditions: combination with TNF-α. Type of data set: cell-based.
Text: as §1

Data set [9] deals with HBV. As to the kind of experiment: HBV replication in HepG2.2.15 liver cancer cell line. The class given is cell-based.
Text: as §1

Data set [10] relates to HBV. Nature of the data set: Virus clearance in pAAV-HBV 1.3 model. The class given is in vivo. Conditions: injection, C57BL/6J mice.
Data set [11] has as its system HBV. Nature of the data set: HBV models in mice: hepatocyte apoptosis and liver immune readouts. The class given is in vivo.
The test system of data set [12] is HBV. The settings on record: mouse model of chronic HBV infection; cited from earlier work.

Each structure is given as a SMILES string. Where “and” joins values, the source holds several entries; their conditions need not be identical. Identical values can stand only once. Like-named read-outs stand apart in the source and are kept apart here. A value given as a limit tells only on which side of the number the result lay.

Sequence of ABL1-nonphosphorylated (P00519 whole entry): as the sequence (P00519 whole entry) above

Regarding `Cc1ccc(C(=O)Nc2ccc(CN3CCN(C)CC3)c(C(F)(F)F)c2)cc1C#Cc1cnc2[nH]ncc2c1` [Compound 1, 3-(2-(1H-pyrazolo[3,4-b]pyridin-5-yl)ethynyl)-4-methyl-N-(4-((4-methylpiperazin-1-yl)methyl)-3-(trifluoromethyl)phenyl)-benzamide], the remaining activity at 0.01 µM on ABL1-nonphosphorylated (read-out: % Ctrl @ 10 nM) is 4.4%; on ABL1-phosphorylated (read-out: % Ctrl @ 10 nM), 3%; at ABL2 (10 nM), 2.6%. In addition, the remaining activity at 0.1 µM on ABL1-nonphosphorylated (read-out: % Ctrl @ 100 nM) is 0.1%; at ABL1-phosphorylated (read-out: % Ctrl @ 100 nM) it was 0%; on ABL2 (100 nM), 0%. In addition, the remaining activity at 1 µM on ABL1-nonphosphorylated (read-out: % Ctrl @ 1000 nM), at ABL1-phosphorylated (read-out: % Ctrl @ 1000 nM) and at ABL2 (1000 nM) was 0% in each case. Moreover, the IC50 in the data set with SARS-CoV-2 is 1.32 µM; against RIPK1, 0.054 µM; in data set [2], 0.006 ± 0.003 µM; on BCR-ABL1 kinase, 0.0003 ± 4.5e-06 µM. Further, the “SARS-CoV-2 infection in Vero cell” value in the data set on SARS-CoV-2 (result in words) is given as “inhibits SARS-CoV-2 infection in Vero cell”. Besides, the “production of cytokines associated with influenza induced cytokine storm” value in [1] is “inhibits the production of cytokines associated with influenza induced cytokine storm”. Moreover, the “survival of influenza virus infected mice” value in the data set with influenza virus (at the amounts of 5 mg/kg or 10 mg/kg) is “improves the survival of influenza virus infected mice”. In addition, the “Day 21 Survival number” value in the data set on influenza virus (mouse, in vivo) is 1 and 2. The “Survival rate (%)” value with influenza virus (mouse, in vivo) was 11.11% and 22.22%. The compound further showed a CC50 in “in vitro” above 5 µM.

As for `Cc1ccc(C(=O)Nc2ccc(CN3CCN(C)CC3)c(C(F)(F)F)c2)cc1C#Cc1cnc2cccnn12` [Ponatinib], in the data set with influenza virus (mouse, in vivo), the “Day 21 Survival number” value was 2 and 1; the “Survival rate (%)” value was 22.22% and 11.11%.

With `CC1(C)CCC(c2ccc(Cl)cc2)=C(CN2CCN(c3ccc(C(=O)NS(=O)(=O)c4ccc(N[C@H](CCN5CCOCC5)CSc5ccccc5)c(S(=O)(=O)C(F)(F)F)c4)cc3)CC2)C1` [ABT-263], the “apoptosis in virus-infected cells” value in data set [3] is recorded as “accelerates apoptosis in virus-infected cells”.

Regarding `Cc1ccc(NC(=O)c2ccc(CN3CCN(C)CC3)cc2)cc1Nc1nccc(-c2cccnc2)n1` [Imatinib], the “inhibition of SARS-CoV” value in the data set with SARS-CoV [4] is “inhibit”. The “inhibition of MERS-CoV” value with MERS-CoV [5] is listed as “inhibit”. Besides, the cytotoxicity entry in the data set with Vero E6 cells was “low cytotoxicity”. Besides, the “virus production of SARS-CoV” value in the data set on SARS-CoV [6] is “showed inhibition”. For the same compound, the “virus production of MERS-CoV” value in the data set with MERS-CoV [7] is “showed inhibition”.

In the case of `Cc1cn(-c2cc(NC(=O)c3ccc(C)c(Nc4nccc(-c5cccnc5)n4)c3)cc(C(F)(F)F)c2)cn1` [Nilotinib, reference compound], in data set [2], the IC50 worked out at 0.01 ± 0.003 µM. In addition, the “production of IL-8, IP-10 and MCP-1” value in the data set with IL-8, IP-10, MCP-1 is on record as “inhibit the production”.

As to `CCN(CC)CCCC(C)Nc1ccnc2cc(Cl)ccc12` (stereo not drawn) [Chloroquine], in the data set on SARS-CoV-2, the IC50 was 13 µM and the “Max Inhibition (%)” value stood at 100.01%. The CC50 in “in vitro” is above 150 µM.

For `CC1(C)CCC(c2ccc(Cl)cc2)=C(CN2CCN(c3ccc(C(=O)NS(=O)(=O)c4ccc(N[C@H](CCN5CCOCC5)CSc5ccccc5)c(S(=O)(=O)C(F)(F)F)c4)cc3)CC2)C1` [ABT-236], the “apoptosis in virus-infected cells” value in the data set on virus-infected cells is “accelerate apoptosis in virus-infected cells”.

`Cc1nc(Nc2ncc(C(=O)Nc3c(C)cccc3Cl)s2)cc(N2CCN(CCO)CC2)n1` [Dasatinib]: the cytotoxicity entry in the data set with Vero E6 cells is given as “low cytotoxicity”.

Take `Cc1cccc(C)c1OCC(=O)N[C@@H](Cc1ccccc1)[C@@H](O)C[C@H](Cc1ccccc1)NC(=O)[C@H](C(C)C)N1CCCNC1=O` [Lopinavir]: in the data set with SARS-CoV-2, the IC50 stood at 17.3 µM and the “Max Inhibition (%)” value worked out at 99.93%. Moreover, the CC50 in “in vitro” is above 50 µM.

On to `CN[C@@H](C)C(=O)N[C@H]1CN(S(=O)(=O)c2cccc(S(=O)(=O)N3CC[C@H]4CC[C@@H](C(=O)NC(c5ccccc5)c5ccccc5)N4C(=O)[C@@H](NC(=O)[C@H](C)NC)C3)c2)CC[C@H]2CC[C@@H](C(=O)NC(c3ccccc3)c3ccccc3)N2C1=O` [Compound 2, (5S,5′S,8S,8′S,10aR,10a′R)-3,3′-(1,3-phenylenedisulfonyl)bis(N-benzhydryl-5-((S)-2-(methylamino)propanamido)-6-oxodecahydropyrrolo[1,2-a][1,5]diazocine-8-carboxamide)], for which, in the data set with SARS-CoV-2, the IC50 was above 50 µM and the “Max Inhibition (%)” value is 25.93%. Further, the “production of cytokines associated with influenza induced cytokine storm” value in [1] is listed as “inhibits the production of cytokines associated with influenza induced cytokine storm”. Moreover, the “expression of IAPs” value with IAPs is reported as “inhibits the expression of IAPs in a dose-dependent manner”. In addition, the apoptosis pathway activation result in [8] is “significantly activate apoptosis pathway”. In the data set on HBV [9] (high concentrations), the virus replication result is recorded as “impair enhancement of virus replication”. Besides, the virus replication result in the data set on HBV [9] (low concentrations) is “increased virus replication”. The virus clearance entry in the data set with HBV [10] is reported as “promotes virus clearance”. Also, the “apoptosis in the HBV-infected (HBsAg+) hepatocytes” value in the data set on HBV [11] (HBV models in mice) is on record as “specifically induced apoptosis”. In the data set on HBV [11] (liver tissue of HBV models), the “expression of IFN-γ and TNF-α” value is “promotes the expression of IFN-γ and TNF-α”; the “number of CD4+ and CD8+ T cells” value is listed as “promotes”. In “in vitro”, this compound had a CC50 above 50 µM.

Regarding `CCC(CC)COC(=O)[C@H](C)N[P@](=O)(OC[C@H]1O[C@@](C#N)(c2ccc3c(N)ncnn23)[C@H](O)[C@@H]1O)Oc1ccccc1` [Remdesivir], in the data set with SARS-CoV-2, the IC50 is 12.4 µM and the “Max Inhibition (%)” value is given as 95.01%. For the same compound, the CC50 in “in vitro” is above 50 µM.

Regarding `CCOC(=O)C1=C[C@@H](OC(CC)CC)[C@H](NC(C)=O)[C@@H](N)C1` [Oseltamivir], the “Survival rate (%)” value in the data set with influenza virus (10 mpk, QD, 2 hr prior to infection, day 21) amounted to 100%. The “Day 21 Survival number” value with influenza virus (10 mpk, QD, 2 hr prior to infection, of 9 animals) came out at 9.

Turning to `CC[C@H](NC(=O)[C@H](C)NC)C(=O)N1C[C@@H](O)C[C@H]1Cc1c(-c2[nH]c3cc(F)ccc3c2C[C@@H]2C[C@H](O)CN2C(=O)[C@H](CC)NC(=O)[C@H](C)NC)[nH]c2cc(F)ccc12` [Birinapant], the virus replication entry in the data set on HBV [9] (high concentrations) is on record as “impair enhancement of virus replication”. Moreover, the virus replication entry in the data set with HBV [9] (low concentrations) is listed as “increased virus replication”. Moreover, in the data set with HBV [12], the “elimination of hepatocytes containing HBV core antigen” value is reported as “promote the elimination”, the “serum HBV DNA” value is reported as “rapidly reduce” and the “serum HBV surface antigen” value is recorded as “rapidly reduce”.

Regarding `CN(C)CC[C@H](CSc1ccccc1)Nc1ccc(S(=O)(=O)NC(=O)c2ccc(N3CCN(Cc4ccccc4-c4ccc(Cl)cc4)CC3)cc2)cc1[N+](=O)[O-]` [ABT-737], in the data set on virus-infected cells, the “apoptosis in virus-infected cells” value is “accelerate apoptosis in virus-infected cells”.
